Laboratory results as given in patent publication US10940139B2, “Compounds that interact with the Ras superfamily for the treatment of cancers, inflammatory diseases, rasopathies, and fibrotic disease” (Shy Therapeutics LLC, priority 2017, dated 2021).
Where two headings read alike, the source gives them in different places.

Key:
Experiment in all cases: Ras GTP binding domain inhibition assay (labeled GTP)
KRas G12D mutant protein = KRas G12D mutant protein (Homo sapiens (Human), UniProt P01116, G12D)
KRas wild type = KRas wild type (Homo sapiens (Human), UniProt P01116)
Summary of the method: (§1)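 His-tagged KRas protein (3-10 μg/ml) was captured overnight at 4° C on nickel-coated wells in 50 mM Tris pH 7.5, 1 mM MgCl2, 1 mM DTT. Bound labeled GTP was read by fluorescence after washing.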

[1] = molecular target: KRas G12C/Q61H double mutant (Homo sapiens (Human), UniProt P01116, G12C/Q61H); settings: 20 μM compound; read-out: % Inhibition at 20 μM KRas G12C Q61H
Summary of the method: as §1

[2] = molecular target: KRas G12D/Q61H double mutant (Homo sapiens (Human), UniProt P01116, G12D/Q61H)
Summary of the method: as §1

KRas G12C mutant = KRas G12C mutant (Homo sapiens (Human), UniProt P01116, G12C)
Summary of the method: as §1

KRas Q61H mutant = KRas Q61H mutant (Homo sapiens (Human), UniProt P01116, Q61H); settings: 20 μM compound; read-out: % Inhibition at 20 μM KRas Q61H
Summary of the method: as §1

[3] = 20 μM compound, read-out: % Inhibition at 20 μM KRas G12D
[4] = 20 μM compound, read-out: % Inhibition at 20 μM KRas wild type
[5] = 20 μM compound, read-out: % Inhibition at 20 μM KRas G12D Q61H
[6] = 20 μM compound, read-out: % Inhibition at 20 μM KRas G12C
[7] = 20 μM, read-out: KRas G12D % Inh.
[8] = 20 μM, read-out: KRas wild type, % Inh.
[9] = 20 μM, read-out: KRas G12D Q61H % Inh.
[10] = 20 μM, read-out: KRas G12C % Inh.

KRas G12C mutant, sequence (P01116-2 other isoform, or with tags, fused parts or gaps G12C): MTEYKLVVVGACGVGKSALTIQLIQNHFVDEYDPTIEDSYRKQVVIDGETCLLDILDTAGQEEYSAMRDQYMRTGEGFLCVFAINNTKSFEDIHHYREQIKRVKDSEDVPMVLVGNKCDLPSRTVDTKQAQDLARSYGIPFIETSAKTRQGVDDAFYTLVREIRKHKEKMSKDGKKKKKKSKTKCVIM
KRas wild type, sequence (P01116-2 other isoform, or with tags, fused parts or gaps): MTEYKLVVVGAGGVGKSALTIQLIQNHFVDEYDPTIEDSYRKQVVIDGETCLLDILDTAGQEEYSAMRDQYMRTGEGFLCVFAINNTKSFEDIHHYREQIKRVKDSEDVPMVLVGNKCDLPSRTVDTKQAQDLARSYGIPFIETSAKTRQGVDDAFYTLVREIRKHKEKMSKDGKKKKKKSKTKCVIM
KRas G12D mutant protein, sequence (P01116-2 other isoform, or with tags, fused parts or gaps G12D): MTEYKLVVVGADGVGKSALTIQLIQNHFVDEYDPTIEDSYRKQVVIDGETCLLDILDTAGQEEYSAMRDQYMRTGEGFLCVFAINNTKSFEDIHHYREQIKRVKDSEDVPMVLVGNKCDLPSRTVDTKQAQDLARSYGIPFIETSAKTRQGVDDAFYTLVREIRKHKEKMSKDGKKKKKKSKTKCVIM
KRas G12D/Q61H double mutant, sequence (P01116-2 other isoform, or with tags, fused parts or gaps G12D/Q61H): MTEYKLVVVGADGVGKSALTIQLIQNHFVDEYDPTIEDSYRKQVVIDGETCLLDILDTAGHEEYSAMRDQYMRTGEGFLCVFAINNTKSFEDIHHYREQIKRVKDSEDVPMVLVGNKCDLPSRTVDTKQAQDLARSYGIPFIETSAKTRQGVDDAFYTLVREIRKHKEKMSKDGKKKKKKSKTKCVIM
KRas G12C/Q61H double mutant, sequence (P01116-2 other isoform, or with tags, fused parts or gaps G12C/Q61H): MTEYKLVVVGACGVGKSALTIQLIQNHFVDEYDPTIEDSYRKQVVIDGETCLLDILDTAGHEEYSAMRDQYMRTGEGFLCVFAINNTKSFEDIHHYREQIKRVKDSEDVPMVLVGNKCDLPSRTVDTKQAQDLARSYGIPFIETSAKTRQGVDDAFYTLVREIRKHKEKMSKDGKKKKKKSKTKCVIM
KRas Q61H mutant, sequence (P01116-2 other isoform, or with tags, fused parts or gaps Q61H): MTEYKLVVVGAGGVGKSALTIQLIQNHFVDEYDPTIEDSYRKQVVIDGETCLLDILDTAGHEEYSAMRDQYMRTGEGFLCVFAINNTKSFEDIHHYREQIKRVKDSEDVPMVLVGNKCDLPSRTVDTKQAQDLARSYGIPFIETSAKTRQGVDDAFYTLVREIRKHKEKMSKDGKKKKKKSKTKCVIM

Row | inhibition at 20 µM (KRas G12D mutant protein; [3]) [%] | inhibition at 20 µM (KRas wild type; [4]) [%] | inhibition at 20 µM [2, 5] [%] | inhibition at 20 µM (KRas G12C mutant; [6]) [%] | inhibition at 20 µM (KRas G12D mutant protein; [7]) [%] | inhibition at 20 µM (KRas wild type; [8]) [%] | inhibition at 20 µM [2, 9] [%] | inhibition at 20 µM (KRas G12C mutant; [10]) [%] | SMILES | further results
1 | 51 to 75 | 51 to 75 | 51 to 75 | 51 to 75 | – | – | – | – | CC(C)COc1ccc(-c2csc3c(O)nc(-c4ccccn4)nc23)cn1 [drawing 2877] | inhibition at 20 µM [1]: 51 to 75%; inhibition at 20 µM (KRas Q61H mutant): 51 to 75%
2 | 51 to 75 | 51 to 75 | 51 to 75 | 51 to 75 | – | – | – | – | O=C(O)c1cc2nc(-c3ccccn3)nc(O)c2s1 [drawing 2850] | inhibition at 20 µM [1]: 51 to 75%; inhibition at 20 µM (KRas Q61H mutant): 51 to 75%
3 | 51 to 75 | 51 to 75 | 76 to 100 | 25 to 50 | – | – | – | – | O=C(OCCc1ccccc1)N1CCCc2c(O)nc(-c3ccccn3)nc21 [drawing 2653] | –
4 | 51 to 75 | 76 to 100 | 51 to 75 | 25 to 50 | – | – | – | – | O=C(c1csc2c(O)nc(-c3ccccn3)nc12)N1CCC(c2cccnc2)CC1 [drawing 2682] | –
5 | – | – | – | – | 76 to 100 | 51 to 75 | 76 to 100 | 51 to 75 | O=C(Nc1nnc(-c2ccccn2)[nH]1)c1ccn(-c2ccccc2)n1 [drawing 2464] | –
6 | – | – | – | – | 25 to 50 | 25 to 50 | 76 to 100 | 25 to 50 | Cc1cc(C(=O)Nc2nc(-c3ccccn3)cs2)no1 [drawing 2568] | –
7 | – | – | – | – | 76 to 100 | 25 to 50 | 76 to 100 | 1 to 25 | O=C(Nc1nnc(-c2ccccn2)[nH]1)c1ccn(-c2cccc(Cl)c2)n1 [drawing 2559] | –
8 | – | – | – | – | 51 to 75 | 1 to 25 | 51 to 75 | 25 to 50 | COC(=O)c1cc(NCc2nc(CC(C)C)no2)ccc1Cl [drawing 2612] | –
9 | 51 to 75 | 25 to 50 | 25 to 50 | 51 to 75 | – | – | – | – | c1ccc(-c2nc(NCC3CCCO3)c3ccsc3n2)nc1 (stereo not shown) [drawing 2705] | –
10 | – | – | – | – | 51 to 75 | 1 to 25 | 25 to 50 | 1 to 25 | OCCNc1nc(-c2ccccn2)nc2scc(-c3ccccc3)c12 [drawing 2603] | –
11 | – | – | – | – | 51 to 75 | 25 to 50 | 76 to 100 | 25 to 50 | O=C(c1ccn(-c2ccccc2)n1)N1CCCc2c(O)nc(-c3ccccn3)nc21 [drawing 2644] | –
12 | – | – | – | – | 51 to 75 | 51 to 75 | 51 to 75 | 25 to 50 | O=C(Nc1nc(-c2ccccn2)cs1)c1cccc(F)c1 [drawing 2567] | –
13 | – | – | – | – | 25 to 50 | 25 to 50 | 51 to 75 | 25 to 50 | OCCOCCNc1nc(-c2ccccn2)nc2scc(-c3ccccc3)c12 [drawing 2609] | –
14 | – | – | – | – | 76 to 100 | 51 to 75 | 51 to 75 | 51 to 75 | COc1ccc(C(=O)Nc2nc(-c3ccccn3)cs2)cn1 [drawing 2581] | –
15 | 25 to 50 | 25 to 50 | 1 to 25 | 25 to 50 | – | – | – | – | NC(=O)Cn1cnc2nc(-c3ccccn3)nc(N3CCOCC3)c21 [drawing 2825] | –
16 | – | – | – | – | – | – | – | – | COCCNc1nc(-c2nccn2C)nc2sc(-c3ccccc3)c(-c3ccccc3)c12 [drawing 3535] | inhibition at 20 µM (KRas G12D mutant protein; 20 μM compound, KRas G12D, read-out: % Inhibition at 20 μM of K-Ras mutant and wild-type protein, KRas G12D): 76 to 100%; inhibition at 20 µM (KRas wild type; 20 μM compound, KRas wild type, read-out: % Inhibition at 20 μM of K-Ras mutant and wild-type protein, KRas wild type): 1 to 25%; inhibition at 20 µM ([2]; 20 μM compound, KRas G12D/Q61H double mutant, read-out: % Inhibition at 20 μM of K-Ras mutant and wild-type protein, KRas G12D Q61H): 51 to 75%; inhibition at 20 µM (KRas G12C mutant; 20 μM compound, KRas G12C, read-out: % Inhibition at 20 μM of K-Ras mutant and wild-type protein, KRas G12C): 51 to 75%
17 | 51 to 75 | 25 to 50 | 51 to 75 | 51 to 75 | – | – | – | – | O=C(OCCc1cccnc1)N1CCCc2c(O)nc(-c3ccccn3)nc21 | –

Row | SMILES | inhibition at 20 µM (KRas G12D mutant protein; [3]) [%] | inhibition at 20 µM (KRas wild type; [4]) [%] | inhibition at 20 µM [2, 5] [%] | inhibition at 20 µM (KRas G12C mutant; [6]) [%] | inhibition at 20 µM (KRas G12D mutant protein; [7]) [%] | inhibition at 20 µM (KRas wild type; [8]) [%] | inhibition at 20 µM [2, 9] [%] | inhibition at 20 µM (KRas G12C mutant; [10]) [%] | further results
18 | Oc1nc(-c2ccccn2)nc2c(Br)csc12 [drawing 2673] | 25 to 50 | 25 to 50 | 51 to 75 | 25 to 50 | – | – | – | – | –
